Experimental findings from patent US20260335277A1, “CHLOROTONIL DERIVATIVES” (priority 2023, published 2026) are described below.

The subject of experiment [1] is chloroquine-resistant P. falciparum. In words: Drug sensitivity assay, asexual stages (HRP2 ELISA, 72 h). In kind it is cell-based. The note with it: Plasmodium falciparum; chloroquine-resistant P. falciparum Dd2; mean ± SD. The procedure:
(§1) Drug sensitivity assays of asexual plasmodium stages were carried out as described before (doi: 10.1128/AAC.49.8.3575-3577.2005). Briefly, the drugs were distributed in a 3-fold serial dilution in 96-well plates. Synchronized ring-stage parasites were diluted to a parasitemia of 0.05% with O Rh+ erythrocytes incomplete culture medium and seeded at a hematocrit of 1.5% in a total volume of 225 μL per well. Thereafter, the plates were incubated at 5% CO2, 5% O2, at 37° C. for 72 h, then they were frozen and thawed three times. The growth inhibition of P. falciparum was measured through an enzyme-linked immunosorbent assay (ELISA) for histidine-rich protein 2 (HRP2) using a microplate reader.
For orientation: An ELISA detects its analyte on a solid surface through an enzyme-linked reagent.

Experiment [2] relates to drug-sensitive P. falciparum 3D7. The experiment is described as above. In kind it is cell-based. The note with it: Plasmodium falciparum, mean ± SD, read-out: chloroquine IC50. As to the method: as §1

Consider `CCN(CC)CCCC(C)Nc1ccnc2cc(Cl)ccc12` (centres unmarked) [Chloroquine], for which the IC50 (in general, the concentration at which inhibition is half-maximal) came to 226 ± 76 nM in experiment [1] and 7.4 nM in experiment [2].
